This note sets out measurements from patent publication US6878751B1, “Administration of resveratrol to treat inflammatory respiratory disorders” (Imperial College of Science Technology and Medicine, priority 2000, dated 2005).

Assay [1] relates to NF-κB dependent transcription. Put plainly: NF-κB luciferase reporter in stably transfected A549 cells. It counts as cell-based, human. The protocol: (§1) The expression of inflammatory genes was then evaluated in cells transformed with luciferase reporter genes containing sites for transcription factors (Tf, Tfs). The A549 cells were stably transfected by routine methods with luciferase reporters containing the transcription factors NF-κB, TRE (AP-1, TPA responsive element) and CRE (cAMP responsive element). Luciferase activity of cell lysates resuspended in […] cell lysis buffer mixed (40 mml resuspended lysate: 40 mml assay reagent) was measured using the Luciferase Assay System (Promega), with emitted light measured by a Turner DesignsTD-20/20 luminometer (Steptech Instruments Ltd., Stevenage, U.K.)

For assay [2], the system named is CRE dependent transcription. Put plainly: CRE luciferase reporter in stably transfected A549 cells. It counts as cell-based, human. As to the method: as §1
Background: In a reporter assay the amount or activity of a reporter protein is the signal.

Broadly, the EC50 is the concentration at which the effect is half-maximal. For `C[C@@H]1C[C@H]2[C@@H]3CCC4=CC(=O)C=C[C@]4(C)[C@@]3(F)[C@@H](O)C[C@]2(C)[C@@]1(O)C(=O)CO` [Dexamethasone, dexamethasone, reference compound], the “extent of inhibition of NF-κB dependent transcription” value in assay [1] is listed as 41%. Besides, the EC50 in assay [1] (Homo sapiens, read-out: EC50 for inhibition of NF-κB dependent transcription) was 16 ± 12 µM; in assay [2] (Homo sapiens, read-out: EC50 for inhibition of CRE dependent transcription) it was 3.4 ± 3 µM. In addition, in assay [2], the “extent of inhibition of CRE dependent transcription” value is reported as 62%.
